Among the data in PubChem BioAssay (NCI) are GI50 and TGI values, retold here.

Among the test systems are MALME-3M melanoma; SW-620 colon; EKVX NSCLC; A498 renal; HCT-116 colon; OVCAR-8 ovarian; U251 CNS; UACC-257 melanoma; HL-60(TB) leukemia; NCI/ADR-RES ovarian.
Common to all, as to test: NCI tumour cell line growth inhibition, 48 h

The structures appear in SMILES notation. Values joined by “and” are separate entries in the source; they are usually repeats but may differ in a detail not shown here. Identical values can stand only once.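 Dose response: 5 concentrations. Exposure: 48 h. Format: 96-well plates. Endpoint: linear interpolation; highest concentration if not reached. GI50 marks 50% less growth. TGI is the concentration that stops growth completely.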 Where only a bound is given, the exact number is not on record here.

`NC(=O)c1nnn(Cc2cc(Cl)c(C(=O)c3ccc(Cl)cc3)c(Cl)c2)c1N`: the GI50 in the experiment on MALME-3M melanoma, in the experiment with SW-620 colon, in the experiment with EKVX NSCLC, in the experiment on A498 renal, in the experiment with HCT-116 colon and with OVCAR-8 ovarian was > 9.09 µM each time. The GI50 in the experiment on U251 CNS was > 9.09 µM; in the experiment on UACC-257 melanoma, 6.96 µM; with HL-60(TB) leukemia it was > 9.09 µM. For the same molecule, the TGI in the experiment with MALME-3M melanoma was > 9.09 µM and 44.1 µM; in the experiment on SW-620 colon, > 9.09 µM and 50.1 µM; with EKVX NSCLC it was > 9.09 µM and 37.5 µM; in the experiment with A498 renal, > 9.09 µM and 27.2 µM; in the experiment with HCT-116 colon, > 9.09 µM and 35.2 µM; with OVCAR-8 ovarian, > 9.09 µM and 40.8 µM. Further, the TGI in the experiment with U251 CNS was > 9.09 µM and 38.1 µM; in the experiment with UACC-257 melanoma, > 9.09 µM and 33.7 µM; with HL-60(TB) leukemia, > 100 µM; in the experiment on NCI/ADR-RES ovarian, > 66.4 µM.
Take `CC(C)c1ccc2c(N=Nc3ccc(S(N)(=O)=O)cc3)c(O)[nH]c2c1`: the GI50 was 12.4 µM in the experiment on MALME-3M melanoma; > 25 µM in the experiment with SW-620 colon; > 16.6 µM with EKVX NSCLC; > 21.5 µM in the experiment on A498 renal; 11 µM with HCT-116 colon; 10.3 µM with OVCAR-8 ovarian. Also, the GI50 in the experiment with U251 CNS is 5.09 µM; in the experiment on UACC-257 melanoma it was > 21.5 µM; with HL-60(TB) leukemia it was > 25 µM; in the experiment on NCI/ADR-RES ovarian it was > 13.5 µM. The TGI in the experiment on MALME-3M melanoma was > 25 µM; in the experiment on SW-620 colon, > 25 µM; with EKVX NSCLC it was > 25 µM; in the experiment with A498 renal, > 25 µM; in the experiment with HCT-116 colon, > 25 µM; with OVCAR-8 ovarian, > 20.1 µM. Moreover, the TGI in the experiment on U251 CNS was > 17.4 µM; in the experiment on UACC-257 melanoma it was > 25 µM; in the experiment with HL-60(TB) leukemia it was > 25 µM; in the experiment on NCI/ADR-RES ovarian, > 25 µM.
With `COc1ccc(/C=C2\N=C(c3ccccc3)N(c3cc(C(F)(F)F)ccc3Cl)C2=O)cc1OC`, the GI50 in the experiment with MALME-3M melanoma is 79.7 µM; with SW-620 colon, 20.5 µM; in the experiment with EKVX NSCLC, > 100 µM; in the experiment with A498 renal, > 100 µM; in the experiment with HCT-116 colon, 21.4 µM; in the experiment on OVCAR-8 ovarian, 50.8 µM. Moreover, the GI50 in the experiment on U251 CNS is 39 µM; in the experiment with UACC-257 melanoma, > 100 µM; in the experiment with HL-60(TB) leukemia it was 17.6 µM; in the experiment with NCI/ADR-RES ovarian, 55.6 µM. The TGI with MALME-3M melanoma is > 100 µM; in the experiment with SW-620 colon it was 46.2 µM; in the experiment on EKVX NSCLC it was > 100 µM; with A498 renal it was > 100 µM; in the experiment with HCT-116 colon it was 41.4 µM; with OVCAR-8 ovarian, > 100 µM. The TGI with U251 CNS was > 100 µM; with UACC-257 melanoma, > 100 µM; in the experiment on HL-60(TB) leukemia, 47.3 µM; in the experiment on NCI/ADR-RES ovarian, > 100 µM.
Turning to `COc1c(OC(C)=O)c(OC(C)=O)cc2c1-c1ccc(OC)c(=O)cc1C(NC(C)=O)CC2` (centres undefined), the TGI is > 100 µM in the experiment with MALME-3M melanoma; > 100 µM with SW-620 colon; > 100 µM in the experiment with EKVX NSCLC; 2.48 µM with A498 renal; 0.942 µM with HCT-116 colon; > 70.1 µM in the experiment on OVCAR-8 ovarian. The TGI is 9.24 µM in the experiment on U251 CNS, > 100 µM in the experiment with UACC-257 melanoma, < 0.0103 µM in the experiment on HL-60(TB) leukemia and 74.1 µM in the experiment on NCI/ADR-RES ovarian.
As to `CCOCCc1c(O)nc(SC)[nH]c1=O`, the GI50 in the experiment with MALME-3M melanoma, in the experiment with SW-620 colon, in the experiment on EKVX NSCLC, with A498 renal, with HCT-116 colon and with OVCAR-8 ovarian was > 100 µM throughout. Besides, the GI50 with U251 CNS, with UACC-257 melanoma, with HL-60(TB) leukemia and in the experiment on NCI/ADR-RES ovarian was > 100 µM each time. Moreover, the TGI in the experiment with MALME-3M melanoma, with SW-620 colon, in the experiment with EKVX NSCLC, with A498 renal, in the experiment with HCT-116 colon and with OVCAR-8 ovarian was > 100 µM each time. In addition, the TGI in the experiment with U251 CNS, with UACC-257 melanoma, with HL-60(TB) leukemia and in the experiment on NCI/ADR-RES ovarian was > 100 µM in each case.
With `CCOC(=O)C1c2[nH]c3ccccc3c2CCN1C(=O)c1ccco1` (centres undefined), the TGI in the experiment with MALME-3M melanoma, with SW-620 colon, with EKVX NSCLC, in the experiment on A498 renal, in the experiment with HCT-116 colon and in the experiment on OVCAR-8 ovarian was > 10 µM in each case. For the same molecule, the TGI in the experiment with U251 CNS, in the experiment on UACC-257 melanoma, with HL-60(TB) leukemia and with NCI/ADR-RES ovarian was > 10 µM in each case.
Regarding `O=C(/C=C/C=C/c1ccccc1)c1ccc(Nc2nc(Nc3ccccc3)nc(Nc3ccccc3)n2)cc1`, the GI50 with MALME-3M melanoma is > 100 µM; in the experiment with SW-620 colon it was > 100 µM; in the experiment on EKVX NSCLC it was 88.2 µM; in the experiment with A498 renal, 19.8 µM; in the experiment on HCT-116 colon, 12.2 µM; with OVCAR-8 ovarian, 31.4 µM. For the same molecule, the GI50 with U251 CNS is 63.7 µM; in the experiment with UACC-257 melanoma, > 100 µM; with HL-60(TB) leukemia it was 28.7 µM; with NCI/ADR-RES ovarian it was > 100 µM. In addition, the TGI in the experiment with MALME-3M melanoma, with SW-620 colon, with EKVX NSCLC, in the experiment on A498 renal, in the experiment on HCT-116 colon and in the experiment on OVCAR-8 ovarian was > 100 µM throughout. The TGI in the experiment with U251 CNS, in the experiment on UACC-257 melanoma, with HL-60(TB) leukemia and with NCI/ADR-RES ovarian was > 100 µM each time.
For `C(=N/Nc1ncnc2nc[nH]c12)/c1ccccn1`, the GI50 with MALME-3M melanoma is 0.268 µM; in the experiment with SW-620 colon it was 1.71 µM; in the experiment on EKVX NSCLC it was 0.386 µM; in the experiment on A498 renal it was 6.17 µM; in the experiment on HCT-116 colon, 0.46 µM; with OVCAR-8 ovarian, 0.393 µM. Further, the GI50 was 0.569 µM in the experiment on U251 CNS, 1.87 µM in the experiment with UACC-257 melanoma, 1.01 µM with HL-60(TB) leukemia and 0.382 µM in the experiment with NCI/ADR-RES ovarian. Also, the TGI is 5.62 µM with MALME-3M melanoma; > 100 µM with SW-620 colon; 40.5 µM in the experiment with EKVX NSCLC; > 100 µM with A498 renal; > 100 µM in the experiment with HCT-116 colon; > 100 µM with OVCAR-8 ovarian. For the same molecule, the TGI was > 100 µM in the experiment on U251 CNS, 7.96 µM in the experiment on UACC-257 melanoma, 7.07 µM with HL-60(TB) leukemia and > 22.3 µM with NCI/ADR-RES ovarian.
